One experiment deals with T1, CCK-1 receptor (Homo sapiens, UniProt P32238).
T1 construct: expressed in transfected cells; host or cells: CHO-K1
T1 sequence (P32238 1-428): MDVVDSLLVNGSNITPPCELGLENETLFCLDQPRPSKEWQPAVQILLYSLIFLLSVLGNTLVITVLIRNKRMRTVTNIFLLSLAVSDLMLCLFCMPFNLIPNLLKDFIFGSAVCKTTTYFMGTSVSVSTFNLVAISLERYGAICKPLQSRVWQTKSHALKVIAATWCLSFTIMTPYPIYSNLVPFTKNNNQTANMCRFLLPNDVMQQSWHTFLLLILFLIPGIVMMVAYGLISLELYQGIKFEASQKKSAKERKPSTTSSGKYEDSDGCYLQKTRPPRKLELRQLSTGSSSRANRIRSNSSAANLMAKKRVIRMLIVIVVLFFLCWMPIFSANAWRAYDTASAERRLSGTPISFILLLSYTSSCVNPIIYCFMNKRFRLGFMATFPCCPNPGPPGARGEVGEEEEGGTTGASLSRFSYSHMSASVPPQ
Nature of the experiment: CCK1 binding assay ([125I]-BH-CCK-8S displacement, CHO-K1 membranes). The conditions noted are these: membranes of CHO-K1 cells stably transfected with the CCK-1 receptor, 20 pM [125I]-BH-CCK-8S, 0.3 μM PD-134,308 present, 60 min at 21±3° C.; for Ki: read-out: CCK1 pKi (converted). The gist of the method:
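Membranes from CHO-K1 cells stably expressing CCK-1 incubated 1 h at 21±3° C with 20 pM [125I]-BH-CCK-8S in HEPES buffer pH 7.2 containing 0.3 μM PD-134,308 to block CCK-2. Bound radioactivity read by gamma counting after filtration. pKi derived via Cheng-Prusoff, with specific binding defined using 2-NAP.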

The next experiment deals with T2, CCK2 receptor (Homo sapiens, UniProt P32239).
T2 construct: analyzed for ZFP expression as well as CCK2R induction upon addition of doxycycline to the culture medium; endogenous in cells
T2 sequence (P32239 1-447): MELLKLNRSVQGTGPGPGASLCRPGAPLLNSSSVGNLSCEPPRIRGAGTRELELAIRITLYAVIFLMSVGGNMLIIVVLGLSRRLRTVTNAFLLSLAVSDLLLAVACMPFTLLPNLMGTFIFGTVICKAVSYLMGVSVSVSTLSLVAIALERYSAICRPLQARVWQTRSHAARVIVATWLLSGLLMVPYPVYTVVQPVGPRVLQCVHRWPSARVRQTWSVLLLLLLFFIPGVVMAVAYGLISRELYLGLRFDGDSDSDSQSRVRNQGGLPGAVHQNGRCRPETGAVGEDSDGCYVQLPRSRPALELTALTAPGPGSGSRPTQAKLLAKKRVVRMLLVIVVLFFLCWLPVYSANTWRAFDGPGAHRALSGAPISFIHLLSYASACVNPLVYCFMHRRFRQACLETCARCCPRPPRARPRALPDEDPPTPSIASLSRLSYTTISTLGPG
Nature of the experiment: CCK2 binding assay ([125I]-BH-CCK-8S displacement, HEKZFP membranes). The conditions noted are these: membranes of doxycycline-induced HEKZFP cells, 20 pM [125I]-BH-CCK-8S, 60 min at 21±3° C.; for Ki: read-out: CCK2 pKi (converted).

Data on 20 compounds can be found in patent US7855292B2, “Sulfonamide compounds” (Janssen Pharmaceutica NV, priority 2004, dated 2010).

The structures appear in SMILES notation.

On to `O=C(N[C@@H](Cc1ccc(Cl)c(Cl)c1)C(=O)O)c1cc(Cl)c(Cl)cc1NS(=O)(=O)c1cccc2nsnc12` [Example 141, (S)-2-[2-(Benzo[1,2,5]thiadiazole-4-sulfonylamino)-4,5-dichloro-benzoylamino]-3-(3,4-dichloro-phenyl)-propionic acid], for which the Ki on CCK-1 receptor is 100 nM; at CCK2 receptor, 63.1 nM.
Regarding `COC(=O)[C@H](Cc1ccc(Cl)c(Br)c1)NC(=O)c1ccc(Br)cc1NS(=O)(=O)c1cccc2nsnc12` [Example 142, (S)-2-[2-(Benzo[1,2,5]thiadiazole-4-sulfonylamino)-4-bromo-benzoylamino]-3-(3-bromo-4-chloro-phenyl)-propionic acid methyl ester], the Ki is 158 nM at CCK-1 receptor and 631 nM at CCK2 receptor.
`COC(=O)[C@H](Cc1ccc(F)c(Br)c1)NC(=O)c1ccc(Br)cc1NS(=O)(=O)c1cccc2nsnc12` [Example 143, (S)-2-[2-(Benzo[1,2,5]thiadiazole-4-sulfonylamino)-4-bromo-benzoylamino]-3-(3-bromo-4-fluoro-phenyl)-propionic acid methyl ester]: the Ki on CCK-1 receptor is 158 nM; at CCK2 receptor, 200 nM.
In the case of `O=C(O)/C(=C/c1ccc(Cl)c(Cl)c1)NC(=O)c1cc(Cl)c(Cl)cc1NS(=O)(=O)c1cccc2nsnc12` [Example 144, (Z)-2-[2-(Benzo[1,2,5]thiadiazole-4-sulfonylamino)-4,5-dichloro-benzoylamino]-3-(3,4-dichloro-phenyl)-acrylic acid], the figures for the Ki at CCK-1 receptor and on CCK2 receptor were 501 nM and 50.1 nM, respectively.
Consider `O=C(N[C@@H](Cc1ccc(Cl)c(Br)c1)C(=O)O)c1ccc(Cl)cc1NS(=O)(=O)c1cccc2nsnc12` [Example 145, (S)-2-[2-(Benzo[1,2,5]thiadiazole-4-sulfonylamino)-4-chloro-benzoylamino]-3-(3-bromo-4-chloro-phenyl)-propionic acid], for which the “CCK1 pKi” value on CCK-1 receptor came out at 6.7. On CCK2 receptor, the “CCK2 pKi” value is recorded as 7.4.
For the compound `O=C(N[C@@H](Cc1ccc(Cl)c(Br)c1)C(=O)O)c1ccc(Cl)cc1NS(=O)(=O)c1cccc2nccnc12` [Example 146, (S)-3-(3-Bromo-4-chloro-phenyl)-2-[4-chloro-2-(quinoxaline-5-sulfonylamino)-benzoylamino]-propionic acid], the Ki on CCK-1 receptor was 251 nM; on CCK2 receptor, 25.1 nM.
Regarding `O=C(N[C@@H](Cc1ccc(Cl)c(Br)c1)C(=O)O)c1cc(Cl)c(Cl)cc1NS(=O)(=O)c1cccc2nsnc12` [Example 147, (S)-2-[2-(Benzo[1,2,5]thiadiazole-4-sulfonylamino)-4,5-dichloro-benzoylamino]-3-(3-bromo-4-chloro-phenyl)-propionic acid], the Ki is 158 nM on CCK-1 receptor and 39.8 nM at CCK2 receptor.
With `O=C(N[C@@H](Cc1ccc(Cl)c(Br)c1)C(=O)O)c1cc(Cl)c(Cl)cc1NS(=O)(=O)c1cccc2nccnc12` [Example 148, (S)-3-(3-Bromo-4-chloro-phenyl)-2-[4,5-dichloro-2-(quinoxaline-5-sulfonylamino)-benzoylamino]-propionic acid], the Ki was 251 nM at CCK-1 receptor and 63.1 nM at CCK2 receptor.
For `COC(=O)[C@H](Cc1ccc(F)c(Br)c1)NC(=O)c1ccc(Cl)cc1NS(=O)(=O)c1cccc2nsnc12` [Example 149, (S)-2-[2-(Benzo[1,2,5]thiadiazole-4-sulfonylamino)-4-chloro-benzoylamino]-3-(3-bromo-4-fluoro-phenyl)-propionic acid methyl ester], in that order: 200 nM and 200 nM.
For `COC(=O)[C@H](Cc1ccc(F)c(Br)c1)NC(=O)c1cc(Cl)c(Cl)cc1NS(=O)(=O)c1cccc2nsnc12` [Example 150, (S)-2-[2-(Benzo[1,2,5]thiadiazole-4-sulfonylamino)-4,5-dichloro-benzoylamino]-3-(3-bromo-4-fluoro-phenyl)-propionic acid methyl ester], in that order: 79.4 nM and 251 nM.
For the compound `COC(=O)[C@H](Cc1ccc(F)c(Br)c1)NC(=O)c1ccc(Br)cc1NS(=O)(=O)c1cccc2nccnc12` [Example 151, (S)-3-(3-Bromo-4-fluoro-phenyl)-2-[4-bromo-2-(quinoxaline-5-sulfonylamino)-benzoylamino]-propionic acid methyl ester], the Ki on CCK-1 receptor is 794 nM; on CCK2 receptor, 126 nM.
Consider `COC(=O)[C@H](Cc1ccc(F)c(Br)c1)NC(=O)c1ccc(Cl)cc1NS(=O)(=O)c1cccc2nccnc12` [Example 152, (S)-3-(3-Bromo-4-fluoro-phenyl)-2-[4-chloro-2-(quinoxaline-5-sulfonylamino)-benzoylamino]-propionic acid methyl ester], for which the Ki was 1000 nM on CCK-1 receptor and 158 nM at CCK2 receptor.
For `COC(=O)[C@H](Cc1ccc(F)c(Br)c1)NC(=O)c1cc(Cl)c(Cl)cc1NS(=O)(=O)c1cccc2nccnc12` [Example 153, (S)-3-(3-Bromo-4-fluoro-phenyl)-2-[4,5-dichloro-2-(quinoxaline-5-sulfonylamino)-benzoylamino]-propionic acid methyl ester], the “CCK1 pKi” value on CCK-1 receptor stood at 6.7. Also, at CCK2 receptor, the “CCK2 pKi” value turned out to be 6.6.
Turning to `COC(=O)[C@H](Cc1ccc(Cl)c(Cl)c1)NC(=O)c1ccc(I)cc1NS(=O)(=O)c1cccc2nsnc12` [Example 154, (S)-2-[2-(Benzo[1,2,5]thiadiazole-4-sulfonylamino)-4-iodo-benzoylamino]-3-(3,4-dichloro-phenyl)-propionic acid methyl ester], the values for the Ki at CCK-1 receptor and at CCK2 receptor were 158 nM and 251 nM, respectively.
On to `O=C(N[C@@H](Cc1ccc(Cl)c(Br)c1)C(=O)O)c1ccc(Br)cc1NS(=O)(=O)c1cccc2nccnc12` [Example 155, (S)-3-(3-Bromo-4-chloro-phenyl)-2-[4-bromo-2-(quinoxaline-5-sulfonylamino)-benzoylamino]-propionic acid], for which the “CCK1 pKi” value on CCK-1 receptor is 7.0. Moreover, the “CCK2 pKi” value on CCK2 receptor came to 8.0.
In the same order, the values of `O=C(N[C@@H](Cc1ccc(F)c(Br)c1)C(=O)O)c1ccc(Cl)cc1NS(=O)(=O)c1cccc2nsnc12` [Example 156, (S)-2-[2-(Benzo[1,2,5]thiadiazole-4-sulfonylamino)-4-chloro-benzoylamino]-3-(3-bromo-4-fluoro-phenyl)-propionic acid] are 6.6 and 8.0.
In the same order, the values of `O=C(N[C@@H](Cc1ccc(F)c(Br)c1)C(=O)O)c1ccc(Br)cc1NS(=O)(=O)c1cccc2nccnc12` [Example 158, (S)-3-(3-Bromo-4-fluoro-phenyl)-2-[4-bromo-2-(quinoxaline-5-sulfonylamino)-benzoylamino]-propionic acid] are 6.5 and 8.3.
In the same order, the values of `O=C(N[C@@H](Cc1ccc(F)c(Br)c1)C(=O)O)c1ccc(Cl)cc1NS(=O)(=O)c1cccc2nccnc12` [Example 159, (S)-3-(3-Bromo-4-fluoro-phenyl)-2-[4-chloro-2-(quinoxaline-5-sulfonylamino)-benzoylamino]-propionic acid] are 6.4 and 8.0.
`O=C(N[C@@H](Cc1ccc(F)c(Br)c1)C(=O)O)c1cc(Cl)c(Cl)cc1NS(=O)(=O)c1cccc2nccnc12` [Example 160, (S)-3-(3-Bromo-4-fluoro-phenyl)-2-[4,5-dichloro-2-(quinoxaline-5-sulfonylamino)-benzoylamino]-propionic acid]: the “CCK1 pKi” value at CCK-1 receptor was 6.8. The “CCK2 pKi” value on CCK2 receptor turned out to be 8.2.
In the same order, the values of `O=C(N[C@@H](Cc1ccc(Cl)c(Br)c1)C(=O)O)c1ccc(Br)cc1NS(=O)(=O)c1cccc2nsnc12` [Example 161, (S)-2-[2-(Benzo[1,2,5]thiadiazole-4-sulfonylamino)-4-bromo-benzoylamino]-3-(3-bromo-4-chloro-phenyl)-propionic acid] are 6.9 and 7.9.
